Patent US20240374535A1, “COMPOSITIONS AND METHODS FOR TREATING BIOFILM DISORDERS AND INFECTIONS” (AHV International B.V., priority 2021, published 2024)

Tests used:
[1] = tested on: Staphylococcus epidermis ATCC 35984; assay: MIC assay (planktonic growth inhibition, OD600); format: cell-based, S. epidermidis; settings: 24 h at 37° C.
Protocol: (§1) The exact weighed amount was noted and the volume of solvent to reach a 80 mM dilution calculated. Half of the volume was added first, by adding Tween 80. In a second step, the other half of the volume DMSO was added and the closed tube inverted 5-10 times and then vortexed very thoroughly for at least 30 seconds. If after this procedure unsolved material was still visible, the tube was placed in a shaker at 37° C. at 150 rpm for at least 30 minutes. […] For the MBEC assay (method 1.3) the solution needs to be diluted to a final concentration of 2 mM in 0.9% saline solution and then further diluted to 1 mM, 0.5 mM, 0.25 mM and 0.125 mM in saline. Those dilutions were added as treatment to the 96 well plates with the grown biofilm (see method 3).
(§2) Frozen aliquots of Staphylococcus epidermis ATCC 35984 and Pseudomonas aeruginosa ATCC 27853 were used to inoculate a tryptic soy agar (TSA) plate and incubated overnight at 37° C. After incubation 3-5 well-isolated colonies with the same morphology were selected from the TSA plate and resuspended in 2 mL 0.9% saline solution with 3-6 glass beads and vortexed. The optical density at 600 nm (OD600) of the bacterial suspension was measured with a spectrophotometer (Evolution™ 201/220 UV-Visible Spectrophotometer, Thermo Fisher Scientific) and diluted to an OD600 of 0.0008, which resembles 10^6 CFU/mL.
(§3) The MIC assay was performed in a flat-bottom 96-microtiter plate. 50 μL of MHB-II was added into columns 2-11, and 100 μL to column 12 for sterility control. 100 μL of the 8 mM test compound solution (method 1) was added to column 1. A two-fold dilution series of the solution in MHB-II was achieved by resuspending 50 μL of the 8 mM solution from column 1 to column 2. This step was repeated until column 10. The respective concentration of Tween 80 and DMSO in column 1 was 2.5%, which is two-fold diluted throughout the plate. 50 μL of the bacterial suspension was added to column 1-11. The microtiter plates were sealed with adhesive polyethylene film for sealing microplates (Diversified Biotech) and incubated for 24 h at 37° C. After incubation the OD was measured at 600 nm with the Varioskan (Thermo Fisher Scientific). […] This assay was repeated three times in three independent experiments.

[2] = tested on: Pseudomonas aeruginosa ATCC 27853; assay: MIC assay (planktonic growth inhibition, OD600); format: cell-based, P. aeruginosa; settings: Pseudomonas aeruginosa, ATCC27853, 24 h at 37° C.
Protocol: as §1, §2, §3

[3] = tested on: Staphylococcus epidermis ATCC 35984 biofilm; assay: MBEC assay (biofilm eradication, CFU log reduction); format: cell-based, S. epidermidis; settings: 48 h grown biofilm, 20 h treatment, CFU log reduction vs untreated
Protocol: as §1
(§4) Frozen aliquots of Staphylococcus epidermis ATCC 35984 and Pseudomonas aeruginosa ATCC 27853 were used to inoculate 20 mL of Tryptic Soy Broth (TSB) in a 100 mL Erlenmeyer flask at 37° C. and 150 rpm and incubated overnight (Infors). The OD600 of the overnight culture was measured with a spectrophotometer (Evolution™ 201/220 UV-Visible Spectrophotometer, Thermo Fisher Scientific) and diluted to an OD600 of 0.2, which resembles 10^8 CFU/mL. The cell suspension of OD600=0.2 was seeded into a U-bottom-shaped 96 well plates by pipetting 100 μL per well in column 1-11, column 12 was filled with 100 μL medium as sterility control. The 96 well plates were sealed with adhesive polyethylene film for sealing microplates and incubated for 48 h at 37° C. at static conditions. After the biofilm growth phase, 100 μL of treatment solutions (method 1) were added to the vials resulting in treatment concentrations of 1 mM, 0.5 mM, 0.25 mM and 0.125 mM and with the respective concentration of Tween 80 and DMSO each at 0.63%, 0.32%, 0.16% and 0.08%. The same concentration was applied to four different wells of the same bacterial strain, resulting in four replicates for each concentration and strain. The treatment was incubated for 20 h at 37° C. at static conditions. After the treatment the supernatant was carefully removed and the well with the biofilm washed carefully for one time with 200 μL 0.9% saline solution. 200 μL saline solution was added and the biofilm was resuspended thoroughly. When fully homogenized then 20 μL was used for the first dilution in 180 μL 0.9% saline solution, which was prepared in a second plate. This dilution was continued until dilution step 10E−5 and 100 μL of the 10E−4 and 10E−5 dilution plated on a TSA plate. The TSA plates were incubated at 37° C. for 24 h. The colonies on the plates were enumerated, the colony forming units per mL of the dispensed biofilm and averages thereof and the log reduction in comparison with the untreated sample from the same wells plate calculated. Reduction of colony forming units goes hand in hand with the thickness of the biofilm and thus with the number bacteria that are present in the biofilm. Therefore, a significant reduction of colony forming units in the biofilm was defined at the value of log reduction ≥1 or more. This assay was repeated two times in two independent experiments)

[4] = tested on: Pseudomonas aeruginosa ATCC 27853 biofilm; assay: as above; format: cell-based, P. aeruginosa; settings: 48 h grown biofilm, 20 h treatment, CFU log reduction vs untreated
Protocol: as §1, §4

[5] = tested on: cows with a SCC of more as 250.000 cells/ml; assay: In vivo mastitis test: somatic cell count (SCC) in milk after a single oral tablet; design: species or system cow; settings: single oral tablet (10 g), 60 days, FIG. 1
Protocol: Experiments were performed to examine the effect of compounds on the cell count or somatic cell count (SCC) in milk.
Somatic cell counts (SCC) is related to the amount of pathogens that are in the quarter visible for the immune system. The cell count of each cow was measured with the milk production registration (MPR). This MPR is done periodically every 30-40 days at all farms. The Somatic Cell Count (SCC) is a main indicator of milk quality. The majority of somatic cells are leukocytes (white blood cells)—which become present in increasing numbers in milk usually as an immune response to a mastitis-causing pathogen—and a small number of epithelial cells, which are milk-producing cells shed from inside of the udder when an infection occurs.
The SCC data was extracted from milk production registrations (MPRs). MPRs are databases showing all details (e.g. SCC) of the produced milk per individual cow. MPRs of the selected farms were available periodically. SCC is quantified as the number of cells per ml of milk. In general terms: an individual cow with a value for SCC of 100,000 or less indicates an ‘uninfected’ cow and there were no significant production losses due to subclinical mastitis. A threshold SCC above 250,000 indicates infection and counts between 100,000 to 250,000 indicate a high risk of infection.
The experiments were performed on a farm with 90 cows. Examination was performed on cell count with the above described tablets during 60 days.
Cows with a SCC of more as 250.000 cells/ml before treatment were selected for administration of a single tablet.

udder cleft wound = assay: In vivo udder cleft dermatitis test: wound assessment after spray treatment; design: species or system cow
Protocol: An example of a biofilm-related disorder is Udder Cleft Dermatitis (UCD), which relates to a chronic wound. In this Example, di-alkyl thiosulfonates, dialkyl thiosulfinates and di-alkyl disulfides were tested for their effect on cows affected by UCD.
Experiments were performed to examine the effect of various sprays containing water (control), a test compound, or a reference compound (CTC spray, which contains chlorotetracycline hydrochloride, and was obtained from Dechra veterinary products).
0.35 mL of the spray was sprayed on an udder cleft wound per treatment. Treatments took place once a day at t=0, at t=3 days and t=6 days. In Table 6, the assessment qualifications that are used in Table 7, are explained.

## O=[SH](O)=S.c1ccc(-c2ccccc2)cc1 [Di-phenyl thiosulfonate, phenyl benzene thiosulfonate]
[1]; minimal concentration reducing final OD600 by 50%, read-out: S. epidermidis MIC50
  MIC50: 1000 µM
[1]; minimal concentration reducing final OD600 by 90%, read-out: S. epidermidis MIC90
  MIC90: 2000 µM
[2]; minimal concentration reducing final OD600 by 50%, read-out: P. aeruginosa MIC50
  MIC50: 2000 µM
[2]; minimal concentration reducing final OD600 by 90%, read-out: P. aeruginosa MIC90
  MIC90: 2000 µM
[3]
  S. epidermidis MBEC mM with log reduction ≥1: 2 mM
[4]
  P. aeruginosa MBEC mM with log reduction ≥1: >4 mM
[5]
  somatic cell count (SCC) of milk: significantly decreased
Udder cleft wound; immediately after the treatment, later infection reduced and wound healed
  inflammation of the udder cleft wound after treatment: fast inflammation reduction
Udder cleft wound; over 60 days, all cows of the group
  Conclusion (effect on udder cleft wound): Positive effect
